Measured values: ChEMBL document CHEMBL1201862, “PubChem BioAssay data set” (2004)
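Tested at 5 concentrations; 48 h exposure; 96-well plates; endpoints linearly interpolated, else capped at highest concentration. At the GI50, growth is halved.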 The source made the active and inactive calls. Rule as the data show it: active = GI50 up to about 1.1 µM and inactive = higher.

Tests used:
Test in all cases: NCI tumour cell line growth inhibition, 48 h
HCT-116 = test system: HCT-116
UACC-62 = test system: UACC-62
SW-620 = test system: SW-620
COLO 205 = test system: COLO 205
U-251 = test system: U-251
IGROV-1 = test system: IGROV-1
NCI/ADR-RES = test system: NCI/ADR-RES
A549 = test system: A549
HOP-62 = test system: HOP-62
T47D = test system: T47D
SK-MEL-2 = test system: SK-MEL-2
LOX IMVI = test system: LOX IMVI
HT-29 = test system: HT-29
OVCAR-5 = test system: OVCAR-5
NCI-H522 = test system: NCI-H522
OVCAR-8 = test system: OVCAR-8
MDA-N = test system: MDA-N
HL-60 = test system: HL-60
KM12 = test system: KM12
SK-MEL-28 = test system: SK-MEL-28

Measured: GI50

O=C(O)C12C3CCC(CC3)C1(C(=O)O)C1CCC2C1 (stereo not given)
inactive: HCT-116 > 100 µM | UACC-62 > 100 µM | SW-620 > 100 µM | COLO 205 > 100 µM | U-251 > 100 µM | IGROV-1 > 100 µM | NCI/ADR-RES > 100 µM | A549 > 100 µM | HOP-62 > 100 µM | T47D > 100 µM | SK-MEL-2 > 100 µM | LOX IMVI > 100 µM | HT-29 > 100 µM | OVCAR-5 > 100 µM | NCI-H522 86.1 µM | OVCAR-8 > 100 µM | MDA-N > 100 µM | HL-60 > 100 µM | KM12 > 100 µM | SK-MEL-28 > 100 µM

CC(C)(C)CN1[C@@H]2CCCC[C@H]2N(CC(C)(C)C)P1(=O)C(O)/C=C/c1ccccc1 (stereo not given in full)
inactive: HCT-116 29.8 µM | UACC-62 35.2 µM | SW-620 34.2 µM | COLO 205 17.3 µM | U-251 41.4 µM | IGROV-1 25.6 µM | NCI/ADR-RES 32.7 µM | A549 25.1 µM | HOP-62 50.2 µM | T47D 26.1 µM | SK-MEL-2 33.3 µM | LOX IMVI 18.7 µM | HT-29 31.5 µM | OVCAR-5 50.4 µM | NCI-H522 26.7 µM | OVCAR-8 62.5 µM | MDA-N 35.3 µM | HL-60 32 µM | KM12 33.7 µM | SK-MEL-28 76.7 µM

C[C@]1(S(=O)(=O)c2ccccc2)C[C@H]2N(Cc3ccccc3)[C@@H]1CCC21OCCO1
inactive: HCT-116 > 100 µM | UACC-62 > 100 µM | SW-620 94.6 µM | COLO 205 50.5 µM | U-251 > 100 µM | IGROV-1 > 100 µM | NCI/ADR-RES 46.9 µM | A549 86.1 µM | HOP-62 > 100 µM | T47D 41.6 µM | SK-MEL-2 > 100 µM | LOX IMVI > 100 µM | HT-29 58.6 µM | OVCAR-5 > 100 µM | NCI-H522 72.6 µM | OVCAR-8 > 100 µM | MDA-N > 100 µM | HL-60 13.6 µM | KM12 58.2 µM | SK-MEL-28 > 100 µM

O=C(O)c1cc(-c2ccc3c(O)c(O)ccc3c2)ccc1O
inactive: HCT-116 15.8 µM | UACC-62 27 µM | SW-620 15 µM | COLO 205 24.9 µM | U-251 15 µM | IGROV-1 40.5 µM | NCI/ADR-RES 33.6 µM | A549 66.4 µM | HOP-62 > 75 µM | T47D > 75 µM | SK-MEL-2 > 75 µM | LOX IMVI 14.1 µM | HT-29 18.6 µM | OVCAR-5 12.6 µM | NCI-H522 38.5 µM | OVCAR-8 23.1 µM | MDA-N 25.2 µM | HL-60 16.8 µM | KM12 47.4 µM | SK-MEL-28 > 75 µM

C=CC[C@H]1[C@H](O[Si](C)(C)C(C)(C)C)C=CC(=O)[C@@H]1CC(=O)OCC
inactive: HCT-116 11.4 µM | UACC-62 11.9 µM | SW-620 15.5 µM | COLO 205 15.3 µM | U-251 14.6 µM | IGROV-1 16.4 µM | NCI/ADR-RES 11 µM | A549 11.7 µM | HOP-62 17.5 µM | T47D 6.04 µM | SK-MEL-2 14.9 µM | LOX IMVI 17.5 µM | HT-29 9.06 µM | OVCAR-5 14.1 µM | NCI-H522 12.5 µM | OVCAR-8 16.4 µM | MDA-N 15.7 µM | HL-60 8.04 µM | KM12 13.4 µM | SK-MEL-28 17.9 µM

O=C1C(Cl)=C(Cl)C(Cl)(Cl)C(Cl)C1(Cl)Cl (stereo not given)
inactive: HCT-116 18.8 µM | UACC-62 16.7 µM | SW-620 22 µM | COLO 205 17.9 µM | U-251 19 µM | IGROV-1 17 µM | NCI/ADR-RES 25.3 µM | A549 20.9 µM | HOP-62 23.4 µM | T47D 21 µM | SK-MEL-2 15.8 µM | LOX IMVI 19.4 µM | HT-29 24.5 µM | OVCAR-5 23.2 µM | NCI-H522 13.7 µM | OVCAR-8 32.2 µM | MDA-N 23.7 µM | HL-60 18.4 µM | KM12 20.1 µM | SK-MEL-28 23.5 µM

CC(=O)[C@]1(C)[C@H](C)O[C@](C)(CO)[C@H]1O[Si](C)(C)c1ccccc1
inactive: HCT-116 38.4 µM | UACC-62 97.9 µM | SW-620 73.6 µM | COLO 205 56.6 µM | U-251 > 100 µM | IGROV-1 17.1 µM | NCI/ADR-RES 37.3 µM | A549 56.6 µM | HOP-62 > 100 µM | T47D 17.8 µM | SK-MEL-2 > 100 µM | LOX IMVI 20.4 µM | HT-29 78.7 µM | OVCAR-5 > 100 µM | NCI-H522 23.2 µM | OVCAR-8 48 µM | MDA-N 54 µM | HL-60 18.4 µM | KM12 47.6 µM | SK-MEL-28 87.1 µM
